Laboratory results as given in ChEMBL document CHEMBL3431459, “Roche carnitine palmitoyltransferase modulator screening data (supplementary data associated with the publication CHEMBL2216752)”.
In brackets after ≈: the same amount, converted by molar mass.

Experiments:
[1] = SUPPLEMENTARY: Lipophilicity (log D) Determination by high-throughput shake-flask; format: physicochemical; conditions: octanol/water
[2] = target: T1, Carnitine O-palmitoyltransferase 1, muscle isoform (Homo sapiens, UniProt Q92523); assay: SUPPLEMENTARY: Inhibition of Carnitine palmitoyltransferase 1, muscle isoform; parameters: species or system Muscle tissue
T1 sequence (Q92523 whole entry): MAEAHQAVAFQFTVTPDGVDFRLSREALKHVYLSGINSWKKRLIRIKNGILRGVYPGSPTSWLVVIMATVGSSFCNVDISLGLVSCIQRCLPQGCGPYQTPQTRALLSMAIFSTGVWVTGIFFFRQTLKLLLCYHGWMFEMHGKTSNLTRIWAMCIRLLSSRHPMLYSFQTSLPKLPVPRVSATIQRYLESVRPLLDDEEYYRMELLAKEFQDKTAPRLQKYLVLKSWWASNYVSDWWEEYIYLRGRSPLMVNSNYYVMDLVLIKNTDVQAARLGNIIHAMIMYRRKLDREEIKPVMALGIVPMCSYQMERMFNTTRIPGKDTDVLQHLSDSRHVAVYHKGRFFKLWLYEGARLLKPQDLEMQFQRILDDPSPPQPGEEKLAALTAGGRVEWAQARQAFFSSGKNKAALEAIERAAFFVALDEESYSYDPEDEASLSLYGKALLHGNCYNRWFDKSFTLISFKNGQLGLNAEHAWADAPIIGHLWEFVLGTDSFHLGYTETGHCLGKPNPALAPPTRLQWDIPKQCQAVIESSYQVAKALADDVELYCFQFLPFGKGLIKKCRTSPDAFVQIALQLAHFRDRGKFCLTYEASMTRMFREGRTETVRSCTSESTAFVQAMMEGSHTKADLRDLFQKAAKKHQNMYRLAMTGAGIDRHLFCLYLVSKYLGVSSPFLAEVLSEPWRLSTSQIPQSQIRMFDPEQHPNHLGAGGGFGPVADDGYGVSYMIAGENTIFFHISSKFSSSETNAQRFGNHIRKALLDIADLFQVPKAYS

[3] = SUPPLEMENTARY: PAMPA permeability assay; format: physicochemical; conditions: read-out: Permeability
[4] = target: T2, Carnitine O-palmitoyltransferase 1, liver isoform (Homo sapiens, UniProt P50416); assay: (§1) SUPPLEMENTARY: Inhibition of Carnitine palmitoyltransferase 1, liver isoform
T2 sequence (P50416 whole entry): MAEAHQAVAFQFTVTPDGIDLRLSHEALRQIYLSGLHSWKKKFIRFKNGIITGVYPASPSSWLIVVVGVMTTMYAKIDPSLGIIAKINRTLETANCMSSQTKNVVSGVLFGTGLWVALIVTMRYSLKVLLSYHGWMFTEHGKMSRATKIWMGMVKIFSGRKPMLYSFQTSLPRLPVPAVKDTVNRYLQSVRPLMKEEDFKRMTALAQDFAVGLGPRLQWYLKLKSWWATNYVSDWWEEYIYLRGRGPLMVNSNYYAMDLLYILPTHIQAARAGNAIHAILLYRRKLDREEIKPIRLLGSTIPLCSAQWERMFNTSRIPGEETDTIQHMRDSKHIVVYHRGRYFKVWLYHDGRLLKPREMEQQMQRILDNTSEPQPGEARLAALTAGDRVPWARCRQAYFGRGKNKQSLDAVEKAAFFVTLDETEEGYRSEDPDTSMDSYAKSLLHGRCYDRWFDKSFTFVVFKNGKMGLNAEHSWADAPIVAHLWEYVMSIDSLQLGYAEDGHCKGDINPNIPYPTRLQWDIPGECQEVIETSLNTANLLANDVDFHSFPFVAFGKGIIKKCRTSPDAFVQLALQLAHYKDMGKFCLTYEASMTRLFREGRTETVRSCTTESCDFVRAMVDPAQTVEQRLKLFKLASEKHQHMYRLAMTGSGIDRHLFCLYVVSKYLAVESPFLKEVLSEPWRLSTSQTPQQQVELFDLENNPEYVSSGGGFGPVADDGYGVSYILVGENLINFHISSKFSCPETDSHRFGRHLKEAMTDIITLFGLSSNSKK

[5] = target: T3, Carnitine O-palmitoyltransferase 1, liver isoform (Rattus norvegicus, UniProt P32198); assay: as §1
T3 sequence (P32198 whole entry): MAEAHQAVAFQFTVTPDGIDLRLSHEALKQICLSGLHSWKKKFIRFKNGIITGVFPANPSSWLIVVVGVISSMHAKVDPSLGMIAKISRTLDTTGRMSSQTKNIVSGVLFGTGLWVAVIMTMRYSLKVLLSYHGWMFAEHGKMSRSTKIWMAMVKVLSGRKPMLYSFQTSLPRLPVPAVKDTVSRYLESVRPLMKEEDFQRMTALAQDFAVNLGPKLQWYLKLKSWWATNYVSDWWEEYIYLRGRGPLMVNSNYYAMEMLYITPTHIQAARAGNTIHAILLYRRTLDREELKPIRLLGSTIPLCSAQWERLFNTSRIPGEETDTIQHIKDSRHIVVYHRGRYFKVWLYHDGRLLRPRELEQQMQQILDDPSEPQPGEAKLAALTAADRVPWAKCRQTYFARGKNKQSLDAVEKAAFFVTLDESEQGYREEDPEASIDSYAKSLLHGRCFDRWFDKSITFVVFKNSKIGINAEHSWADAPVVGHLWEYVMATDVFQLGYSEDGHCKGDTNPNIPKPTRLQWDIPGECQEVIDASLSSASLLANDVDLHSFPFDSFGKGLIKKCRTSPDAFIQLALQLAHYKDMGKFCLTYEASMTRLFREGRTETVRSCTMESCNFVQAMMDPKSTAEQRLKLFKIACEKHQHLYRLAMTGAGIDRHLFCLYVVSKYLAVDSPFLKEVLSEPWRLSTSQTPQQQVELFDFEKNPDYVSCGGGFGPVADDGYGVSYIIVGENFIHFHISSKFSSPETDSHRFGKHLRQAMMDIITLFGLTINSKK

[6] = target: T4, Carnitine O-palmitoyltransferase 2, mitochondrial (Rattus norvegicus, UniProt P18886); assay: (§2) SUPPLEMENTARY: Inhibition of Carnitine palmitoyltransferase 2
T4 sequence (P18886 whole entry): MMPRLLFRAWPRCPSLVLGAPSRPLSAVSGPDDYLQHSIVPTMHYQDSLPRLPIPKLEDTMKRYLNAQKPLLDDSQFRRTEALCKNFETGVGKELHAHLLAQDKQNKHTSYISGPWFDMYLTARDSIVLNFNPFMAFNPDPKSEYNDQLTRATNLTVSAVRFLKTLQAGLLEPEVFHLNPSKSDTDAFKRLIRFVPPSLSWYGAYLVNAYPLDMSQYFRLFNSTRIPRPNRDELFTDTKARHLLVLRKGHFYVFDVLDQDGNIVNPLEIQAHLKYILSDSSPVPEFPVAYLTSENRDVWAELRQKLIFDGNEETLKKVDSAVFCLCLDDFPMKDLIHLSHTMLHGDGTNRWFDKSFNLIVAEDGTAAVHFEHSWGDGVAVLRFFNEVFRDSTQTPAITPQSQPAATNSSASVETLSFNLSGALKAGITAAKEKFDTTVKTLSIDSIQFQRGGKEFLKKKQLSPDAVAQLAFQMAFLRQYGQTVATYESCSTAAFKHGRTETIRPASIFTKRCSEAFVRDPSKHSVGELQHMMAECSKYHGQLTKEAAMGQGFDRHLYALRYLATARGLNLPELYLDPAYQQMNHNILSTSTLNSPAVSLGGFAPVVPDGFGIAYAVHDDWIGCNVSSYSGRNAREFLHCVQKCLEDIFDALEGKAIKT

[7] = target: T5, Carnitine O-palmitoyltransferase 2, mitochondrial (Homo sapiens, UniProt P23786); assay: as §2
T5 sequence (P23786 whole entry): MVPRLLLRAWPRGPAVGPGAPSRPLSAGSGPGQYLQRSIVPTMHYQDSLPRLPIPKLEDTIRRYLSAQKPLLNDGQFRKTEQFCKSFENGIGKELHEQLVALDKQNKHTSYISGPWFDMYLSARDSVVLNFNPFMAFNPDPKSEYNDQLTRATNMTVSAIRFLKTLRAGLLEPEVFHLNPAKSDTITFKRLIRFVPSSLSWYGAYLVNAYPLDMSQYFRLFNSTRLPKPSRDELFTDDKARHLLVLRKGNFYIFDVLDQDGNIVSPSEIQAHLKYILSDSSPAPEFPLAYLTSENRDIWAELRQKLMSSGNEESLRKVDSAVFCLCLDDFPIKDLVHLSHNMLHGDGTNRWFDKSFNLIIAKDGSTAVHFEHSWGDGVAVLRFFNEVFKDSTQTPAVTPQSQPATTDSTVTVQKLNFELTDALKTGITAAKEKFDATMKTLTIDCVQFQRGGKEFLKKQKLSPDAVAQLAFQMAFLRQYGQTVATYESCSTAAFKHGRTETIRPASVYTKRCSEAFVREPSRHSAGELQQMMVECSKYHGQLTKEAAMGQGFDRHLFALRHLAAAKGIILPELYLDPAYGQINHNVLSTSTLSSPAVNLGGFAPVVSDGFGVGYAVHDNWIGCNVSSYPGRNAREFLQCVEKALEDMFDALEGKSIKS

[8] = SUPPLEMENTARY: Lyophilisation Solubility Assay (LYSA); format: physicochemical; conditions: read-out: Kinetic_solubility

SMILES | logD [1] | IC50 [2] [nM] | Papp [3] [×10⁻⁶ cm/s] | IC50 [4] [nM] | IC50 [5] [nM] | IC50 [6] [nM] | IC50 [7] [nM] | solubility kinetic [8] [µg/mL]
NC(=O)c1cccc(-c2n[nH]c([C@H]3CCCCN3C(=O)COc3ccccc3)n2)c1 | 2.16 | > 100000 | 2.25 | 93.1 | 563 | > 100000 | > 100000 | 161 (≈ 397 µM)
Cn1cnc(Br)c1-c1noc([C@H]2CCCCN2C(=O)COc2ccccc2)n1 | 2.68 | > 100000 | 5.6 | 79.3 | 250 | > 100000 | 40500 | 83 (≈ 186 µM)
COc1ccc(Cl)cc1S(=O)(=O)N1CCc2c(C)cc(C(=O)Nc3ccc(C(=O)O)c(F)c3)cc21 | 0.77 | 3680 | 1.65 | 71 | 96.2 | 684 | 286 | 60 (≈ 116 µM)
CC(=O)Nc1cccc(C#C[C@H]2CCCCN2C(=O)COc2ccccc2)c1 | 3.49 | > 100000 | 1.79 | 108 | 191 | > 100000 | > 100000 | < 1
COc1ccc(Cl)cc1S(=O)(=O)N1CCS(=O)(=O)c2ccc(C(=O)Nc3ccc(C(=O)O)c(F)c3)cc21 | -0.27 | 1740 | 0.21 | 102 | 61.3 | 37400 | 4450 | 13 (≈ 22.8 µM)
Cc1cc(-c2nc([C@H]3CCCCN3C(=O)COc3ccccc3)no2)[nH]n1 | 2.57 | 62700 | 6.09 | 188 | 146 | > 100000 | > 100000 | 52 (≈ 142 µM)
COC(=O)[C@H]1CCCC[C@@H]1c1nc([C@H]2CCCCN2C(=O)COc2ccccc2)no1 | 2.9 | > 100000 | 2.24 | 148 | 479 | 85500 | 57300 | 11 (≈ 25.7 µM)
O=C(O)Cc1csc(NC(=O)c2ccc3c(c2)N(S(=O)(=O)c2cccc(Cl)c2)CC3)n1 | 0.34 | 601 | 2.91 | 40.7 | 25.8 | > 100000 | > 100000 | 260 (≈ 544 µM)

Second part, the molecule after the results:

logD [1] | IC50 [2] [nM] | Papp [3] [×10⁻⁶ cm/s] | IC50 [4] [nM] | IC50 [5] [nM] | IC50 [6] [nM] | IC50 [7] [nM] | solubility kinetic [8] [µg/mL] | SMILES
2.55 | 3170 | 1.88 | 53.9 | 38.3 | > 100000 | > 100000 | 3 (≈ 5.58 µM) | COc1ccc(Cl)cc1S(=O)(=O)N1CCOc2c(C)cc(C(=O)Nc3nc(CC(=O)O)cs3)cc21
3.19 | 2400 | 1.69 | 54.6 | 41.8 | > 100000 | > 100000 | 51 (≈ 102 µM) | COc1ccc(C)cc1S(=O)(=O)N1CCCc2ccc(C(=O)Nc3nc(CC(=O)O)cs3)cc21
1.62 | 30200 | 0.841 | 122 | 568 | 1350 | 1820 | 310 (≈ 629 µM) | Cc1cc(C(=O)Nc2ccc(C(=O)O)cc2)cc(S(=O)(=O)Nc2cccc(C(F)(F)F)c2)c1C
-1.22 | 38000 | 0.03 | 136 | 135 | > 100000 | > 100000 | 521 (≈ 1060 µM) | COc1ccc(Cl)cc1S(=O)(=O)N1COc2ccc(C(=O)Nc3ccn(CC(=O)O)n3)cc21
0.13 | 661 | 2.93 | 53.3 | 18.4 | > 100000 | > 100000 | 519 (≈ 1020 µM) | COc1ccc(Cl)cc1S(=O)(=O)N1COc2ccc(C(=O)Nc3nc(CC(=O)O)cs3)cc21
2.16 | > 100000 | 9.41 | 156 | 555 | > 100000 | > 100000 | 94 (≈ 256 µM) | Cn1ccc(-c2nc([C@H]3CCCCN3C(=O)COc3ccccc3)no2)n1
